How the values were obtained:
Acetylcholinesterase = Acetylcholinesterase (Tetronarce californica, UniProt P04058); assay: Acetylcholinesterase Assay; conditions: pH 7.7
Description: Total volume of the reaction mixture was 100 µL. It contained 60 µL Na2HPO4 buffer with concentration of 50 mM and pH 7.7. 10 µL test compound (0.5 mM well-1) was added, followed by the addition of 10 µL (0.005 unit well-1) enzyme. […] Then contents were pre-incubated for 10 min at 37 °C. The reaction was initiated by the addition of 10 µL of 0.5 mM well-1 substrate (acetylthiocholine iodide), followed by the addition of 10 µL DTNB (0.5 mM well-1). […] All experiments were carried out with their respective controls in triplicate.

Cholinesterase = Cholinesterase (Homo sapiens, UniProt P06276); assay: Butyrylcholinesterase Assay; conditions: pH 7.7
Cholinesterase, sequence (P06276 whole entry): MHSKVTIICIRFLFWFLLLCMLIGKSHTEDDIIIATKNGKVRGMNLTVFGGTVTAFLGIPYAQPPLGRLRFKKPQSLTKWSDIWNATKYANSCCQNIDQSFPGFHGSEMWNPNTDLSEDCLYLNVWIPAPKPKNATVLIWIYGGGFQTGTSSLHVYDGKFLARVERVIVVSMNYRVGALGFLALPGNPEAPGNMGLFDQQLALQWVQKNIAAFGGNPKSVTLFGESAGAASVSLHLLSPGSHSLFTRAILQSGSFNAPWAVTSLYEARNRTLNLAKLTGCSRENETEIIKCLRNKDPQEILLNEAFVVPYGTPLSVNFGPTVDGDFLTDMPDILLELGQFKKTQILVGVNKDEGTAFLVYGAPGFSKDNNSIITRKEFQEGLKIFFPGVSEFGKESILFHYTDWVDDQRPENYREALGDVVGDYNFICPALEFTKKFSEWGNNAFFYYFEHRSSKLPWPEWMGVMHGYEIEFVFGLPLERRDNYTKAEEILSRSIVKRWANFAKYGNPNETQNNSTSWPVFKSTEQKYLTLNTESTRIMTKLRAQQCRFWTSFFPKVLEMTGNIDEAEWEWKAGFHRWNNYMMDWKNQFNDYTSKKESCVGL
Description: Total volume of the reaction mixture was 100 µL containing 60 µL, Na2HPO4 buffer, 50 mM and pH 7.7. Ten µL test compound 0.5 mM well-1 was added followedby the addition of 10 µL (0.5 unit well-1) BChE (Sigma Inc.). […] The reaction was initiated by the addition of 10 µL of 0.5 mM well-1 substrate (butyrylthiocholine chloride). Followed by the addition of 10 µL DTNB, 0.5 mM well-1. […] All experiments were carried out with their respective controls in triplicate.

Acetylcholinesterase, sequence (P04058 whole entry): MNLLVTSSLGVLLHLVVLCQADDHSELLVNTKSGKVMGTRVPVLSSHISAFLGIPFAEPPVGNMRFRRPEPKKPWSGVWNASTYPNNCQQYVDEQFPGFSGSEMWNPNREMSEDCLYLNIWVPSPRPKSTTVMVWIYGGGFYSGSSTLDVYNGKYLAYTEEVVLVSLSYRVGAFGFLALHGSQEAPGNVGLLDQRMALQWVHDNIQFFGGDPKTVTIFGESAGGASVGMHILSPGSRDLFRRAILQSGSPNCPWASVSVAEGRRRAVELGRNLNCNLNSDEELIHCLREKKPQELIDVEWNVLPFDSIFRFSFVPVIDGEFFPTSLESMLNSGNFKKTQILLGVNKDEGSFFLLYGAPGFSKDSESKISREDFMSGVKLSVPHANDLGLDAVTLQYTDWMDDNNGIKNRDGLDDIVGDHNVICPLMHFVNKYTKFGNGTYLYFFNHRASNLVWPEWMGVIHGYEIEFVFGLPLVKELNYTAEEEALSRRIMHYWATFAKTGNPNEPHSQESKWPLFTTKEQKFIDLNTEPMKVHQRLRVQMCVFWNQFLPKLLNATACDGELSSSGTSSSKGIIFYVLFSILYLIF

Q: With `O=C(N/N=C\c1cccs1)c1ccccc1O` [2-Hydroxy-N'-[(Z)-2-thienylmethylidene]benzohydrazide (23)] as the molecule, how does the IC50 (Acetylcholinesterase) read?
A: Its IC50 is 430 µM.

Q: How did the IC50 (Acetylcholinesterase) turn out when `O=C(N/N=C\c1cccc(O)c1)c1ccccc1O` [2-Hydroxy-N'-[(Z)-(3-hydroxyphenyl)methylidene]benzohydrazide (27)] was run?
A: Its IC50 is 355 µM.

Q: Which IC50 (Cholinesterase) does the source give for `O=C(N/N=C\c1ccc(O)cc1)c1ccccc1O` [2-Hydroxy-N'-[(Z)-(4-hydroxyphenyl)methylidene]benzohydrazide (28)] here?
A: Its IC50 is 424 µM.

Q: What does the source list for `CC(C)c1ccc(/C=N\NC(=O)c2ccccc2O)cc1` [2-Hydroxy-N'-[(Z)-(4-isopropylphenyl)methylidene]benzohydrazide (12)]?
A: IC50 (Acetylcholinesterase): 39.8 µM; IC50 (Cholinesterase): 71.8 µM

Q: Which IC50 (Acetylcholinesterase) does the source give for `O=C(N/N=C\c1cccc(C(F)(F)F)c1)c1ccccc1O` [2-Hydroxy-N'-{(Z)-[3-(trifluoromethyl)phenyl]methylidene} benzohydrazide (14)] here?
A: Its IC50 is 56.1 µM.

Q: What about the IC50 (Cholinesterase) of the same molecule?
A: Its IC50 is 112 µM.

Q: Which IC50 (Acetylcholinesterase) does the source give for `CSc1ccc(/C=N\NC(=O)c2ccccc2O)cc1` [2-Hydroxy-N'-{(Z)-[4-(methylsulfanyl)phenyl]methylidene} benzohydrazide (22)] here?
A: The IC50 was 436 µM.

Q: `O=C(N/N=C\c1ccc(C(F)(F)F)cc1)c1ccccc1O` [2-Hydroxy-N'-{(Z)-[4-(trifluoromethyl)phenyl]methylidene} benzohydrazide (18)] was tested. Which IC50 (Acetylcholinesterase) did it give?
A: Its IC50 is 48.5 µM.

Q: And the IC50 (Cholinesterase)?
A: The IC50 was 213 µM.

Q: How did the IC50 (Acetylcholinesterase) turn out when `O=C(N/N=C\c1c2ccccc2cc2ccccc12)c1ccccc1O` [(Z)-N'-(anthracen-10-ylmethylene)-2-hydroxybenzohydrazide (10)] was run?
A: Its IC50 is 4.12 µM.

Q: `CCCCOc1ccc(/C=N\NC(=O)c2ccccc2O)cc1` [N0-[(Z)-(4-butoxyphenyl)methylidene]-2-hydroxybenzohydrazide (7)] was tested. Which IC50 (Acetylcholinesterase) did it give?
A: Its IC50 is 15.4 µM.

Q: And the IC50 (Cholinesterase)?
A: The IC50 was 41.8 µM.

Q: `O=C(N/N=C\c1ccco1)c1ccccc1O` [N'-[(Z)-2-furylmethylidene]-2-hydroxybenzohydrazide (11)] was tested. Which IC50 (Cholinesterase) did it give?
A: The IC50 was 418 µM.

Q: Which IC50 (Cholinesterase) does the source give for `COc1cccc(/C=N\NC(=O)c2ccccc2O)c1OC` [N'-[(Z)-(2,3-dimethoxyphenyl)methylidene]-2-hydroxybenzohydrazide (15)] here?
A: The IC50 was 61.6 µM.

Q: For `O=C(N/N=C\c1ccc(Cl)cc1Cl)c1ccccc1O` [N'-[(Z)-(2,4-dichlorophenyl)methylidene]-2-hydroxybenzohydrazide (6)], which IC50 (Acetylcholinesterase) is on record?
A: The IC50 was 18.1 µM.

Q: What about the IC50 (Cholinesterase) of the same molecule?
A: Its IC50 is 43.2 µM.

Q: With `COc1ccc(/C=N\NC(=O)c2ccccc2O)c(OC)c1` [N'-[(Z)-(2,4-dimethoxyphenyl)methylidene]-2-hydroxybenzohydrazide (9)] as the molecule, how does the IC50 (Cholinesterase) read?
A: The IC50 was 293 µM.

Q: For `COc1cccc(OC)c1/C=N\NC(=O)c1ccccc1O` [N'-[(Z)-(2,6-dimethoxyphenyl)methylidene]-2-hydroxybenzohydrazide (2)], which IC50 (Acetylcholinesterase) is on record?
A: Its IC50 is 461 µM.

Q: What about the IC50 (Cholinesterase) of the same molecule?
A: The IC50 was 79.5 µM.

Q: How did the IC50 (Acetylcholinesterase) turn out when `O=C(N/N=C\c1cc(F)ccc1Br)c1ccccc1O` [N'-[(Z)-(2-bromo-5-fluorophenyl)methylidene]-2-hydroxybenzohydrazide (21)] was run?
A: Its IC50 is 312 µM.

Q: What about the IC50 (Cholinesterase) of the same molecule?
A: The IC50 was 267 µM.

Q: For `CCOc1ccccc1/C=N\NC(=O)c1ccccc1O` [N'-[(Z)-(2-ethoxyphenyl)methylidene]-2-hydroxybenzohydrazide (20)], which IC50 (Acetylcholinesterase) is on record?
A: The IC50 was 415 µM.

Q: What about the IC50 (Cholinesterase) of the same molecule?
A: Its IC50 is 116 µM.

Q: Which IC50 (Acetylcholinesterase) does the source give for `O=C(N/N=C\c1cc(Cl)cc(Cl)c1O)c1ccccc1O` [N'-[(Z)-(3,5-dichloro-2-hydroxyphenyl)methylidene]-2-hydroxybenzohydrazide (24)] here?
A: The IC50 was 8.41 µM.

Q: And the IC50 (Cholinesterase)?
A: Its IC50 is 9.22 µM.

Q: How did the IC50 (Acetylcholinesterase) turn out when `O=C(N/N=C\c1ccc(F)c(Br)c1)c1ccccc1O` [N'-[(Z)-(3-bromo-4-fluorophenyl)methylidene]-2-hydroxybenzohydrazide (25)] was run?
A: Its IC50 is 311 µM.

Q: Which results are given for `COc1ccc(/C=N\NC(=O)c2ccccc2O)cc1Br` [N'-[(Z)-(3-bromo-4-methoxyphenyl)methylidene]-2-hydroxybenzohydrazide (17)]?
A: IC50 (Acetylcholinesterase): 19.8 µM; IC50 (Cholinesterase): 38.4 µM

Q: `O=C(N/N=C\c1cccc(Br)c1)c1ccccc1O` [N'-[(Z)-(3-bromophenyl)methylidene]-2-hydroxybenzohydrazide (19)] was tested. Which IC50 (Acetylcholinesterase) did it give?
A: Its IC50 is 156 µM.

Q: And the IC50 (Cholinesterase)?
A: The IC50 was 121 µM.

Q: What does the source list for `O=C(N/N=C\c1ccc(Br)cc1F)c1ccccc1O` [N'-[(Z)-(4-bromo-2-fluorophenyl)methylidene]-2-hydroxybenzohydrazide (26)]?
A: IC50 (Acetylcholinesterase): 369 µM; IC50 (Cholinesterase): 452 µM

Q: With `CCOc1ccc(/C=N\NC(=O)c2ccccc2O)cc1` [N'-[(Z)-(4-ethoxyphenyl)methylidene]-2-hydroxybenzohydrazide (8)] as the molecule, how does the IC50 (Acetylcholinesterase) read?
A: The IC50 was 218 µM.

Q: What about the IC50 (Cholinesterase) of the same molecule?
A: Its IC50 is 116 µM.

Q: Which IC50 (Cholinesterase) does the source give for `COc1ccc(/C=N\NC(=O)c2ccccc2O)cc1OCc1ccccc1` [N'-{(Z)-[3-(benzyloxy)-4-methoxyphenyl]methylidene}-2-hydroxybenzohydrazide (16)] here?
A: The IC50 was 86.2 µM.

Q: How did the IC50 (Acetylcholinesterase) turn out when `O=C(N/N=C\c1ccc(OCc2ccccc2)cc1)c1ccccc1O` [N'-{(Z)-[4-(benzyloxy)phenyl]methylidene}-2-hydroxybenzohydrazide (3)] was run?
A: The IC50 was 8.12 µM.

Q: What about the IC50 (Cholinesterase) of the same molecule?
A: The IC50 was 37.8 µM.

Q: `CC(C)(C)c1ccc(/C=N\NC(=O)c2ccccc2O)cc1` [N'-{(Z)-[4-(tert-butyl)phenyl]methylidene}-2-hydroxybenzohydrazide (13)] was tested. Which IC50 (Acetylcholinesterase) did it give?
A: Its IC50 is 92.4 µM.

Q: And the IC50 (Cholinesterase)?
A: The IC50 was 6.51 µM.

Source: BindingDB's records for doi:10.1016/j.bioorg.2016.07.005 (Hazara University, 2016)
